Patent US12121565B2, “Methods of treatment of specific cancers with NLRP3 inhibitors and anti-PD1/PD-L1 antibodies” (Duke University, priority 2019, dated 2024)

Legend:
[1] = test system: OT-1 CD8+ T cell:BRAFV600E OVA melanoma coculture; test: Coculture of OT-1 CD8+ T cells with OVA-expressing melanoma cells followed by Western blot; type: cell-based, mouse; conditions: increasing concentrations of NLRP3 inhibitor
Procedure: (§1) OT-1 CD8 cell activation was performed by incubating isolated splenocytes of OT-1 transgenic mice with IL-2 (100 U/ml) and SIINFEKL peptide (1 μg/ml, New England Peptide, BP10-915) for 3 days followed by magnetic bead CD8 purification according to the manufacturer's instructions (Miltenyi biotec, 130-104-075). Activated OT-1 CD8 cells were incubated with Braf^V600EPten^−/−-OVA cells and treated with anti-PD1 ab (1 μg/ml) for 72 hrs at a tumor cell:CD8^+ T cell ratio of 1:5. In separate experiments, Braf^V600EPten^−/− cells were treated with increasing concentrations of Dacarbazine (10 μmol-400 μmol).
Tumor tissue or cells were homogenized in NP40 lysis buffer (Sigma-Aldrich) supplemented with complete protease inhibitor and phosphatase inhibitor (Roche). Cells were lysed in Laemmli sample buffer after treatment and subjected to SDS-polyacrylamide gel electrophoresis. After transferring onto PVDF membranes (Bio-Rad), monoclonal and polyclonal primary antibodies and appropriate HRP-conjugated secondary antibodies were utilized for blotting. […]

[2] = test system: BRAFV600E PTEN−/− melanoma cell line; test: In vitro treatment of melanoma cell line followed by Western blot, qRT-PCR, IP, ASC polymerization or ELISA; type: cell-based, mouse; conditions: with or without NLRP3 inhibitor MCC950
Text: Braf^V600EPten^−/− (male, BPD6 (40)), Braf^V600EPten^−/−-Wnt5a^KD (40), Braf^V600EPten^−/−-CXCL5^KD, Braf^V600EPten^−/−-PDL1^KD, Braf^V600EPten^−/−-NLRP3^KD, OVA-expressing Braf^V600EPten^−/−, BRAF^V600EPTEN^−/−-STAT3^CA, and Braf^V600EPten^−/−-NTC (40) cell lines were generated using shRNA-expressing lentiviral vectors and cultured as previously described (40): shNLRP3 (Sigma, SHCLN-NM_145827), shPDL1 (Sigma, SHCLND-NM_021893), shWnt5a (Sigma, SHCLND-NM_009524), shTLR4 (Sigma, SHCLNG-NM_025817, and pLKO.1-puro empty vector control (NTC) (Sigma, SHC001). Stable cell lines were selected by puromycin resistance (Sigma-Aldrich, P8833). Murine Lewis Lung Carcinoma (LLC) cell line is from ATCC (1704526). All cell lines were tested Mycoplasma-free by Duke University Cell Culture Facility shared services. All Braf^V600EPten^−/− cell lines and the LLC cell line were maintained at 37° C. in DMEM (Invitrogen) with 2 mM L-glutamine, supplemented with 10% fetal bovine serum, 100 units/ml penicillin. Depending on the experiment, cell lines were treated with Wnt5a (100-200 ng/ml, R&D Systems/Bio-techne, 645-WN-010), IFNγ (100 ng/ml, BioAbChem, 42-IFNg), anti-PD-L1 ab (1-2 μg/ml), Hsp70 (1 μM-10 μM, Enzo, ADI-ESP-502-D), Hsp70 inhibitor (ThermoFisher, VER155008), CLI-095 TLR4 inhibitor (3 μM-10 μM, Invivogen, tlrl-cli95), TLR2-IN-C29 TLR2 inhibitor (1 μM-10 μM, Glixx, GLXC-06203), MPLA TLR4 agonist (10 μM, Enzo, ALX-581-205-C100), LPS (Lipopolysaccharide) (10 ng, Sigma-Aldrich, L4391-1MG), ATP (1 mM-5 mM, Invivogen, tlrl-atpl), MCC950 NLRP3 inhibitor (2.5 μM-10 μM, Invivogen, inh-mcc), XAV939 β-catenin inhibitor (0.5-1.0 μM, Sigma-Aldrich, X3004-5MG), 2-Aminopurine PKR inhibitor (1 mM-5 mM, Invivogen, tlrl-apr), Verteporfin YAP inhibitor (0.1 μM-1 μM, R&D Systems/Bio-techne, 530510) or vehicle control either for 24 or 48 hrs prior to in vitro and in vivo experiments. Control siRNA (Santa Cruz, sc-37007). TLR4 siRNA (SantaCruz, sc-40261).
as §1
Tumor tissue or cells were homogenized in NP40 lysis buffer (Sigma-Aldrich) supplemented with complete protease inhibitor and phosphatase inhibitor (Roche). Cells were lysed in Laemmli sample buffer after treatment and subjected to SDS-polyacrylamide gel electrophoresis. After transferring onto PVDF membranes (Bio-Rad), monoclonal and polyclonal primary antibodies and appropriate HRP-conjugated secondary antibodies were utilized for blotting. For the immunoprecipitation assays, cells were lysed with TBS buffer (50 mM Tris-HCl (pH 7.4), 150 mM NaCl) containing 0.5% Triton X-100, EDTA-free protease inhibitor cocktail and phosphatase inhibitor cocktail, precleared with protein A/G beads, and then incubated with 1 μg of appropriate antibodies or isotype control IgG on a rotator overnight at 4° C. then incubated with protein A/G-agarose at 4° C. for 1 hour. After 5 washes with TBS buffer, immunoprecipitated complexes were eluted in sample buffer by boiling and subjected to immunoblot analysis. Immunoblots were visualized by chemiluminescence substrate (ThermoFisher) and imaged by a ChemiDoc XRSplus system (BioRad). For the ASC polymerization assay, cells were lysed with TBS buffer containing 0.5% Triton X-100, EDTA-free protease inhibitor cocktail and phosphatase inhibitor cocktail. The lysates were centrifuged at 4,000 g at 4° C. for 15 min. […]

## CC(C)(O)c1coc(S(=O)(=O)NC(=O)Nc2c3c(cc4c2CCC4)CCC3)c1 [MCC950, N-[[(1,2,3,5,6,7-hexahydro-s-indacen-4-yl)amino]carbonyl]-4-(1-hydroxy-1-methylethyl)-2-furansulfonamide]
[1]
  CD8+ T cell-mediated induction of HSP70 release: block
[2]
  ATP stimulation of HSP70 release: block
